Our source for the IC50 values is US12281122B1, “PI3K inhibitors” (Cogent Biosciences, Inc., priority 2023, dated 2025).

Usually IC50 stands for the concentration that inhibits the measured activity by half. Low readings indicate greater potency in that assay, high ones weaker potency in that assay.

A value given as a limit tells only on which side of the number the result lay.

For experiment [1], the system named is T47D (PI3Kα-H1047R) cell line. Briefly: HTRF phospho-AKT(S473) cell assay in T47D cells. Format: cell-based, human. The note with it: Homo sapiens, 2 hours compound incubation. An outline of the steps: (§1)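 HTRF read-out of phospho-AKT(S473) in lysates gave IC50 values after 2 h compound exposure at 37° C. Dose series was 12 points at 1:3, topping at 5 μM for T47D and 10 μM for SKBR3. Only SKBR3 received 70 ng/ml PDGF-BB during the last 15 minutes.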
(In general: Time-resolved FRET reads energy transfer from a long-lived donor to a nearby acceptor.)

The subject of experiment [2] is SKBR3 (PI3Kα-Wild Type) cell line. Put plainly: HTRF phospho-AKT(S473) cell assay in SKBR3 cells. Type of experiment: cell-based, human. The following applies: Homo sapiens, SK-BR-3, 2 hours compound incubation, PDGF-BB stimulated. An outline of the steps: as §1
Setting [3] is: T47D (PI3Kα-H1047R) cells, HTRF phospho-AKT(S473).
The mark [4] stands for this setting: SKBR3 (PI3Kα-Wild Type) cells, HTRF phospho-AKT(S473).
Setting [5] is: HTRF phospho-AKT(S473), T47D (PI3Kα-H1047R) cells.
Where [6] appears, read: HTRF phospho-AKT(S473), SKBR3 (PI3Kα-Wild Type) cells.

With `C[C@@H](Nc1ccc(Cl)nc1C(=O)NS(C)(=O)=O)c1cc(F)cc2c(=O)n(C)c(N3C[C@@H]4[C@H](C3)[C@H]4c3cnn(C)c3)nc12` [Compound 411, 6-chloro-3-(((R)-1-(6-fluoro-3-methyl-2-((1R,5S,6S)-6-(1-methyl-1H-pyrazol-4-yl)-3-azabicyclo[3.1.0]hexan-3-yl)-4-oxo-3,4-dihydroquinazolin-8-yl)ethyl)amino)-N-(methylsulfonyl) picolinamide], the IC50 in experiment [1] (setting [3]) is less than 0.25 µM; in experiment [2] (setting [4]) it was 1 to 5 µM.
With `Cc1cc([C@@H](C)Nc2ccc(Cl)nc2C(=O)NS(C)(=O)=O)c2nc(N3Cc4cnn(C5(C(F)(F)F)CC5)c4C3)n(C)c(=O)c2c1` [Compound 179, (R)-6-chloro-3-((1-(3,6-dimethyl-4-oxo-2-(1-(1-(trifluoromethyl)cyclopropyl)-4,6-dihydropyrrolo[3,4-c]pyrazol-5(1H)-yl)-3,4-dihydroquinazolin-8-yl)ethyl)amino)-N-(methylsulfonyl) picolinamide], the values for the IC50 in experiment [1] (setting [3]) and in experiment [2] (setting [4]) were less than 0.25 µM and 1 to 5 µM, respectively.
With `Cc1cc([C@@H](C)Nc2ccc(Cl)nc2C(=O)NS(C)(=O)=O)c2nc(N3Cc4cnn(-c5ccc(C#N)cc5)c4C3)n(C)c(=O)c2c1` [Compound 240, (R)-6-chloro-3-((1-(2-(1-(4-cyanophenyl)-4,6-dihydropyrrolo[3,4-c]pyrazol-5(1H)-yl)-3,6-dimethyl-4-oxo-3,4-dihydroquinazolin-8-yl)ethyl)amino)-N-(methylsulfonyl) picolinamide], the IC50 in experiment [1] (setting [3]) is less than 0.25 µM; in experiment [2] (setting [4]), 1 to 5 µM.
Turning to `Cc1cc([C@@H](C)Nc2ccc(Cl)nc2C(=O)NS(C)(=O)=O)c2nc(-c3cc(F)c4nn(C)cc4c3)n(C)c(=O)c2c1` [Compound 788, (R)-6-chloro-3-((1-(2-(7-fluoro-2-methyl-2H-indazol-5-yl)-3,6-dimethyl-4-oxo-3,4-dihydroquinazolin-8-yl)ethyl)amino)-N-(methylsulfonyl) picolinamide], the IC50 in experiment [1] (setting [5]) was less than 0.25 µM; in experiment [2] (setting [6]) it was 1 to 5 µM.
Turning to `C[C@@H](Nc1ccc(Cl)nc1C(=O)NS(C)(=O)=O)c1cc(C2CC2)cc2c(=O)n(C)c(N3CCC(c4nn(C)cc4F)CC3)nc12` [Compound 397, (R)-6-chloro-3-((1-(6-cyclopropyl-2-(4-(4-fluoro-1-methyl-1H-pyrazol-3-yl)piperidin-1-yl)-3-methyl-4-oxo-3,4-dihydroquinazolin-8-yl)ethyl)amino)-N-(methylsulfonyl) picolinamide], the IC50 in experiment [1] (setting [3]) is 0.25 to 0.5 µM; in experiment [2] (setting [4]), not below 5 µM.
With `CC(=O)N1CCN(c2cc(F)c(-c3nc4c([C@@H](C)Nc5ccc(Cl)nc5C(=O)NS(C)(=O)=O)cc(C)cc4c(=O)n3C)cc2F)CC1` [Compound 800, (R)-3-((1-(2-(4-(4-acetylpiperazin-1-yl)-2,5-difluorophenyl)-3,6-dimethyl-4-oxo-3,4-dihydroquinazolin-8-yl)ethyl)amino)-6-chloro-N-(methylsulfonyl) picolinamide], the half-inhibitory concentration (IC50) in experiment [1] (setting [5]) is less than 0.25 µM; in experiment [2] (setting [6]), 1 to 5 µM.
Take `Cc1cc([C@@H](C)Nc2ccc(Cl)nc2C(=O)NS(C)(=O)=O)c2nc(-c3ccc(OC4CCN(CC(F)(F)F)CC4)nc3)n(C)c(=O)c2c1` [Compound 846, (R)-6-chloro-3-((1-(3,6-dimethyl-4-oxo-2-(6-((1-(2,2,2-trifluoroethyl)piperidin-4-yl)oxy)pyridin-3-yl)-3,4-dihydroquinazolin-8-yl)ethyl)amino)-N-(methylsulfonyl) picolinamide]: the half-inhibitory concentration (IC50) in experiment [1] (T47D (PI3Kα-H1047R) cell line, phospho-AKT(S473) HTRF) was 0.25 to 0.5 µM; in experiment [2] (SKBR3 (PI3Kα-Wild Type) cell line, phospho-AKT(S473) HTRF), not below 5 µM.
With `COc1nn(C)cc1[C@H]1[C@@H]2CN(c3nc4c([C@@H](C)Nc5ccc(Cl)nc5C(=O)NS(C)(=O)=O)cc(C)cc4c(=O)n3C)C[C@@H]21` [Compound 440, 6-chloro-3-(((R)-1-(2-((1R,5S,6S)-6-(3-methoxy-1-methyl-1H-pyrazol-4-yl)-3-azabicyclo[3.1.0]hexan-3-yl)-3,6-dimethyl-4-oxo-3,4-dihydroquinazolin-8-yl)ethyl)amino)-N-(methylsulfonyl) picolinamide], the results for the IC50 in experiment [1] (setting [5]) and in experiment [2] (setting [6]) were less than 0.25 µM and 1 to 5 µM, respectively.
Consider `Cc1cc([C@@H](C)Nc2ccc(Cl)nc2C(=O)NS(C)(=O)=O)c2nc([C@@H]3CCCN(c4cc[nH]n4)C3)n(C)c(=O)c2c1` (relative stereo) [Compound 322, 3-(((R)-1-(2-((R*)-1-(1H-pyrazol-3-yl)piperidin-3-yl)-3,6-dimethyl-4-oxo-3,4-dihydroquinazolin-8-yl)ethyl)amino)-6-chloro-N-(methylsulfonyl) picolinamide], for which the half-maximal inhibitory concentration (IC50) in experiment [1] (setting [3]) was less than 0.25 µM; in experiment [2] (setting [4]) it was 1 to 5 µM.
As to `Cc1cc([C@@H](C)Nc2ccc(Cl)nc2C(=O)NS(C)(=O)=O)c2nc(N3CCN(c4ccc(C#N)cn4)[C@H](C)C3)n(C)c(=O)c2c1` [Compound 200, 6-chloro-3-(((R)-1-(2-((R)-4-(5-cyanopyridin-2-yl)-3-methylpiperazin-1-yl)-3,6-dimethyl-4-oxo-3,4-dihydroquinazolin-8-yl)ethyl)amino)-N-(methylsulfonyl) picolinamide], the figures for the IC50 in experiment [1] (setting [3]) and in experiment [2] (setting [4]) were less than 0.25 µM and 1 to 5 µM, respectively.
Taken in the same sequence, the figures for `Cc1cc([C@@H](C)Nc2ccc(Cl)nc2C(=O)NS(C)(=O)=O)c2nc(N3C[C@@H]4[C@H](C3)[C@H]4c3ccn(C(C)C)n3)n(C)c(=O)c2c1` [Compound 395, 6-chloro-3-(((R)-1-(2-((1R,5S,6R)-6-(1-isopropyl-1H-pyrazol-3-yl)-3-azabicyclo[3.1.0]hexan-3-yl)-3,6-dimethyl-4-oxo-3,4-dihydroquinazolin-8-yl)ethyl)amino)-N-(methylsulfonyl) picolinamide] were 0.25 to 0.5 µM and not below 5 µM.
Turning to `Cc1cc([C@@H](C)Nc2ccc(Cl)nc2C(=O)NS(C)(=O)=O)c2nc(N3CCC(c4n[nH]c(C)c4F)CC3)n(C)c(=O)c2c1` [Compound 547, (R)-6-chloro-3-((1-(2-(4-(4-fluoro-5-methyl-1H-pyrazol-3-yl)piperidin-1-yl)-3,6-dimethyl-4-oxo-3,4-dihydroquinazolin-8-yl)ethyl)amino)-N-(methylsulfonyl) picolinamide], the figures for the IC50 in experiment [1] (setting [5]) and in experiment [2] (setting [6]) were 0.25 to 0.5 µM and not below 5 µM, respectively.
Taken in the same sequence, the figures for `Cc1cc([C@@H](C)Nc2ccc(Cl)nc2C(=O)NS(C)(=O)=O)c2nc(N3CCC(c4ncn(C(C)C)n4)CC3)n(C)c(=O)c2c1` [Compound 550, (R)-6-chloro-3-((1-(2-(4-(1-isopropyl-1H-1,2,4-triazol-3-yl)piperidin-1-yl)-3,6-dimethyl-4-oxo-3,4-dihydroquinazolin-8-yl)ethyl)amino)-N-(methylsulfonyl) picolinamide] were 0.25 to 0.5 µM and not below 5 µM.
As to `Cc1cc([C@@H](C)Nc2ccc(Cl)nc2C(=O)NS(C)(=O)=O)c2nc(-c3cnc(-c4ccn(C)n4)c(Cl)c3)n(C)c(=O)c2c1` [Compound 293, (R)-6-chloro-3-((1-(2-(5-chloro-6-(1-methyl-1H-pyrazol-3-yl)pyridin-3-yl)-3,6-dimethyl-4-oxo-3,4-dihydroquinazolin-8-yl)ethyl)amino)-N-(methylsulfonyl) picolinamide], the IC50 in experiment [1] (setting [3]) lay within 0.25 to 0.5 µM; in experiment [2] (setting [4]), 1 to 5 µM.
As to `Cc1cc([C@@H](C)Nc2ccc(Cl)nc2C(=O)NS(C)(=O)=O)c2nc(N3CCN(c4ncc(C#N)cn4)CC3)n(C)c(=O)c2c1` [Compound 531, (R)-6-chloro-3-((1-(2-(4-(5-cyanopyrimidin-2-yl)piperazin-1-yl)-3,6-dimethyl-4-oxo-3,4-dihydroquinazolin-8-yl)ethyl)amino)-N-(methylsulfonyl) picolinamide], the figures for the half-inhibitory concentration (IC50) in experiment [1] (setting [5]) and in experiment [2] (setting [6]) were less than 0.25 µM and 1 to 5 µM, respectively.
Consider `Cc1cc([C@@H](C)Nc2ccc(Cl)nc2C(=O)NS(C)(=O)=O)c2nc(N3CCC(c4nc(C(F)F)n(C)n4)CC3)n(C)c(=O)c2c1` [Compound 434, (R)-6-chloro-3-((1-(2-(4-(5-(difluoromethyl)-1-methyl-1H-1,2,4-triazol-3-yl)piperidin-1-yl)-3,6-dimethyl-4-oxo-3,4-dihydroquinazolin-8-yl)ethyl)amino)-N-(methylsulfonyl) picolinamide], for which the IC50 was 0.5 to 1 µM in experiment [1] (setting [3]) and not below 5 µM in experiment [2] (setting [4]).
Take `CO[C@H]1CC[C@@H](n2ncc(-c3nc4c([C@@H](C)Nc5ccc(Cl)nc5C(=O)NS(C)(=O)=O)cc(C)cc4c(=O)n3C)c2C)CC1` (relative stereo) [Compound 380, 6-chloro-3-(((R)-1-(2-(1-((1S*,4S*)-4-methoxycyclohexyl)-5-methyl-1H-pyrazol-4-yl)-3,6-dimethyl-4-oxo-3,4-dihydroquinazolin-8-yl)ethyl)amino)-N-(methylsulfonyl) picolinamide]: the values for the half-maximal inhibitory concentration (IC50) in experiment [1] (setting [3]) and in experiment [2] (setting [4]) were less than 0.25 µM and not below 5 µM, respectively.
Turning to `Cc1cc([C@@H](C)Nc2ccc(Cl)nc2C(=O)NS(C)(=O)=O)c2nc(N3C[C@@H]4[C@H](C3)[C@H]4c3coc(C)n3)n(C)c(=O)c2c1` [Compound 448, 6-chloro-3-(((R)-1-(3,6-dimethyl-2-((1R,5S,6R)-6-(2-methyloxazol-4-yl)-3-azabicyclo[3.1.0]hexan-3-yl)-4-oxo-3,4-dihydroquinazolin-8-yl)ethyl)amino)-N-(methylsulfonyl) picolinamide], the concentration for half-maximal inhibition (IC50) in experiment [1] (setting [5]) was less than 0.25 µM; in experiment [2] (setting [6]) it was 1 to 5 µM.
